Blank lines part the entries; values can stand above or below the molecule they belong to.
Tested on: 966289-007-R4-J1-PDC complex spheroid viability
Assay: Anticancer human tumor 966289-007-R4-J1-PDC patient-derived pancreatic adenocarcinoma cell line growth inhibition [RAS]
Details: for IC50: curve of first compound; for viability, T/C: stronger effect = lower value
Procedure, shortened: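 Tumour cells grown as complex spheroids with HUVEC endothelial cells and mesenchymal stem cells, treated with RAS pathway inhibitor combinations. Each agent spans half-log steps from near clinical Cmax, or 10 microM where Cmax is unknown.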

[1] = second compound 0.000949 µM, first compound 0.00316 µM
[2] = second compound 0.000949 µM, first compound 0.01 µM
[3] = second compound 0.000949 µM, first compound 0.0316 µM
[4] = second compound 0.000949 µM, first compound 0.1 µM
[5] = second compound 0.000949 µM, first compound 0.316 µM
[6] = second compound 0.000949 µM, first compound 1 µM
[7] = second compound 0.003 µM, first compound 0.00316 µM
[8] = second compound 0.003 µM, first compound 0.01 µM
[9] = second compound 0.003 µM, first compound 0.0316 µM
[10] = second compound 0.003 µM, first compound 0.1 µM
[11] = second compound 0.003 µM, first compound 0.316 µM
[12] = second compound 0.003 µM, first compound 1 µM
[13] = second compound 0.00949 µM, first compound 0.00316 µM
[14] = second compound 0.00949 µM, first compound 0.01 µM
[15] = second compound 0.00949 µM, first compound 0.0316 µM
[16] = second compound 0.00949 µM, first compound 0.1 µM
[17] = second compound 0.00949 µM, first compound 0.316 µM
[18] = second compound 0.00949 µM, first compound 1 µM
[19] = second compound 0.03 µM, first compound 0.00316 µM
[20] = second compound 0.03 µM, first compound 0.01 µM
[21] = second compound 0.03 µM, first compound 0.0316 µM
[22] = second compound 0.03 µM, first compound 0.1 µM
[23] = second compound 0.03 µM, first compound 0.316 µM
[24] = second compound 0.03 µM, first compound 1 µM
[25] = second compound 0.0949 µM, first compound 0.00316 µM
[26] = second compound 0.0949 µM, first compound 0.01 µM
[27] = second compound 0.0949 µM, first compound 0.0316 µM
[28] = second compound 0.0949 µM, first compound 0.1 µM
[29] = second compound 0.0949 µM, first compound 0.316 µM
[30] = second compound 0.0949 µM, first compound 1 µM
[31] = second compound 0.3 µM, first compound 0.00316 µM
[32] = second compound 0.3 µM, first compound 0.01 µM
[33] = second compound 0.3 µM, first compound 0.0316 µM
[34] = second compound 0.3 µM, first compound 0.1 µM
[35] = second compound 0.3 µM, first compound 0.316 µM
[36] = second compound 0.3 µM, first compound 1 µM
[37] = second compound 0.000949 µM, first compound 3.16 µM
[38] = second compound 0.000949 µM, first compound 10 µM
[39] = second compound 0.003 µM, first compound 3.16 µM
[40] = second compound 0.003 µM, first compound 10 µM
[41] = second compound 0.00949 µM, first compound 3.16 µM
[42] = second compound 0.00949 µM, first compound 10 µM
[43] = second compound 0.03 µM, first compound 3.16 µM
[44] = second compound 0.03 µM, first compound 10 µM
[45] = second compound 0.0949 µM, first compound 3.16 µM
[46] = second compound 0.0949 µM, first compound 10 µM
[47] = second compound 0.3 µM, first compound 3.16 µM
[48] = second compound 0.3 µM, first compound 10 µM
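Also: spheroids exposed to agents for one week before readout.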
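For viability, T/C in this document: percent viability relative to DMSO vehicle control wells as 100%.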

- IC50 (second compound 0.000949 µM): > 1000 nM
- IC50 (second compound 0.003 µM): > 1000 nM
- IC50 (second compound 0.00949 µM): > 1000 nM
- IC50 (second compound 0.03 µM): > 1000 nM
- IC50 (second compound 0.0949 µM): > 1000 nM
- IC50 (second compound 0.3 µM): > 1000 nM
SMILES: C=CC(=O)Nc1cc(Nc2nccc(-c3cn(C)c4ccccc34)n2)c(OC)cc1N(C)CCN(C)C + CCn1c(-c2cc(N3CCN(C)CC3)cnc2C(C)OC)c2c3cc(ccc31)-c1csc(n1)CC(NC(=O)C1CC1C)C(=O)N1CCCC(N1)C(=O)OCC(C)(C)C2
- viability, T/C [1]: 88%
- viability, T/C [2]: 88.8%
- viability, T/C [3]: 116%
- viability, T/C [4]: 69.1%
- viability, T/C [5]: 83.5%
- viability, T/C [6]: 75.5%
- viability, T/C [7]: 90.7%
- viability, T/C [8]: 92.2%
- viability, T/C [9]: 80.2%
- viability, T/C [10]: 82.7%
- viability, T/C [11]: 110%
- viability, T/C [12]: 79.3%
- viability, T/C [13]: 111%
- viability, T/C [14]: 87.6%
- viability, T/C [15]: 98.8%
- viability, T/C [16]: 78.7%
- viability, T/C [17]: 92.9%
- viability, T/C [18]: 94.7%
- viability, T/C [19]: 74.4%
- viability, T/C [20]: 71.4%
- viability, T/C [21]: 100%
- viability, T/C [22]: 88.4%
- viability, T/C [23]: 120%
- viability, T/C [24]: 96.8%
- viability, T/C [25]: 86%
- viability, T/C [26]: 111%
- viability, T/C [27]: 98.1%
- viability, T/C [28]: 114%
- viability, T/C [29]: 88.2%
- viability, T/C [30]: 101%
- viability, T/C [31]: 102%
- viability, T/C [32]: 89.6%
- viability, T/C [33]: 103%
- viability, T/C [34]: 143%
- viability, T/C [35]: 123%
- viability, T/C [36]: 103%

- IC50 (second compound 0.000949 µM): 5850 nM
- IC50 (second compound 0.003 µM): 4530 nM
- IC50 (second compound 0.00949 µM): 5060 nM
- IC50 (second compound 0.03 µM): 4790 nM
- IC50 (second compound 0.0949 µM): 2990 nM
- IC50 (second compound 0.3 µM): 4070 nM
SMILES: CC(C)NCC(C(=O)N1CCN(c2ncnc3c2C(C)CC3O)CC1)c1ccc(Cl)cc1 (stereo not drawn) + CCn1c(-c2cc(N3CCN(C)CC3)cnc2C(C)OC)c2c3cc(ccc31)-c1csc(n1)CC(NC(=O)C1CC1C)C(=O)N1CCCC(N1)C(=O)OCC(C)(C)C2
- viability, T/C [3]: 115%
- viability, T/C [4]: 76.5%
- viability, T/C [5]: 119%
- viability, T/C [6]: 83.1%
- viability, T/C [37]: 68.4%
- viability, T/C [38]: 35.2%
- viability, T/C [9]: 106%
- viability, T/C [10]: 92.5%
- viability, T/C [11]: 91.8%
- viability, T/C [12]: 95.3%
- viability, T/C [39]: 58.1%
- viability, T/C [40]: 32.2%
- viability, T/C [15]: 85.5%
- viability, T/C [16]: 98.6%
- viability, T/C [17]: 103%
- viability, T/C [18]: 97.2%
- viability, T/C [41]: 61.3%
- viability, T/C [42]: 33.6%
- viability, T/C [21]: 75.1%
- viability, T/C [22]: 97.4%
- viability, T/C [23]: 99.2%
- viability, T/C [24]: 97.6%
- viability, T/C [43]: 61.6%
- viability, T/C [44]: 29.4%
- viability, T/C [27]: 77.1%
- viability, T/C [28]: 90.7%
- viability, T/C [29]: 113%
- viability, T/C [30]: 92.7%
- viability, T/C [45]: 47.9%
- viability, T/C [46]: 27.3%
- viability, T/C [33]: 83.7%
- viability, T/C [34]: 102%
- viability, T/C [35]: 112%
- viability, T/C [36]: 98.3%
- viability, T/C [47]: 57.4%
- viability, T/C [48]: 23.8%

- IC50 (second compound 0.000949 µM): > 10000 nM
- IC50 (second compound 0.003 µM): > 10000 nM
- IC50 (second compound 0.00949 µM): > 10000 nM
- IC50 (second compound 0.03 µM): > 10000 nM
- IC50 (second compound 0.0949 µM): > 10000 nM
- IC50 (second compound 0.3 µM): > 10000 nM
SMILES: CC(Nc1ccc2c(c1)OCCn1cc(N3C(=O)OCC3C(F)F)nc1-2)C(N)=O (stereo not drawn) + CCn1c(-c2cc(N3CCN(C)CC3)cnc2C(C)OC)c2c3cc(ccc31)-c1csc(n1)CC(NC(=O)C1CC1C)C(=O)N1CCCC(N1)C(=O)OCC(C)(C)C2
- viability, T/C [3]: 126%
- viability, T/C [4]: 124%
- viability, T/C [5]: 105%
- viability, T/C [6]: 92.2%
- viability, T/C [37]: 110%
- viability, T/C [38]: 103%
- viability, T/C [9]: 115%
- viability, T/C [10]: 104%
- viability, T/C [11]: 108%
- viability, T/C [12]: 83.7%
- viability, T/C [39]: 96.8%
- viability, T/C [40]: 99.3%
- viability, T/C [15]: 123%
- viability, T/C [16]: 113%
- viability, T/C [17]: 104%
- viability, T/C [18]: 96%
- viability, T/C [41]: 111%
- viability, T/C [42]: 95.2%
- viability, T/C [21]: 84.6%
- viability, T/C [22]: 97%
- viability, T/C [23]: 133%
- viability, T/C [24]: 92.2%
- viability, T/C [43]: 122%
- viability, T/C [44]: 95%
- viability, T/C [27]: 91.6%
- viability, T/C [28]: 119%
- viability, T/C [29]: 104%
- viability, T/C [30]: 101%
- viability, T/C [45]: 114%
- viability, T/C [46]: 88.4%
- viability, T/C [33]: 121%
- viability, T/C [34]: 108%
- viability, T/C [35]: 90.3%
- viability, T/C [36]: 94.5%
- viability, T/C [47]: 123%
- viability, T/C [48]: 92%

- IC50 (second compound 0.000949 µM): 641 nM
- IC50 (second compound 0.003 µM): 596 nM
- IC50 (second compound 0.00949 µM): 228 nM
- IC50 (second compound 0.03 µM): 124 nM
- IC50 (second compound 0.0949 µM): 45.2 nM
- IC50 (second compound 0.3 µM): 32.1 nM
SMILES: O=C(c1ccc(F)c(F)c1Nc1ccc(I)cc1F)N1CC(O)([C@@H]2CCCCN2)C1 + CCn1c(-c2cc(N3CCN(C)CC3)cnc2C(C)OC)c2c3cc(ccc31)-c1csc(n1)CC(NC(=O)C1CC1C)C(=O)N1CCCC(N1)C(=O)OCC(C)(C)C2
- viability, T/C [1]: 101%
- viability, T/C [2]: 89.9%
- viability, T/C [3]: 106%
- viability, T/C [4]: 77.7%
- viability, T/C [5]: 74.2%
- viability, T/C [6]: 36.2%
- viability, T/C [7]: 92%
- viability, T/C [8]: 90.8%
- viability, T/C [9]: 94.7%
- viability, T/C [10]: 74.5%
- viability, T/C [11]: 75.5%
- viability, T/C [12]: 32.2%
- viability, T/C [13]: 83.8%
- viability, T/C [14]: 96.2%
- viability, T/C [15]: 87.8%
- viability, T/C [16]: 82.5%
- viability, T/C [17]: 37%
- viability, T/C [18]: 22.6%
- viability, T/C [19]: 87.3%
- viability, T/C [20]: 79.3%
- viability, T/C [21]: 76.2%
- viability, T/C [22]: 54.2%
- viability, T/C [23]: 29.9%
- viability, T/C [24]: 15.5%
- viability, T/C [25]: 97.5%
- viability, T/C [26]: 93%
- viability, T/C [27]: 52.5%
- viability, T/C [28]: 34.6%
- viability, T/C [29]: 21.1%
- viability, T/C [30]: 11%
- viability, T/C [31]: 93.1%
- viability, T/C [32]: 76.5%
- viability, T/C [33]: 52%
- viability, T/C [34]: 23.7%
- viability, T/C [35]: 19.7%
- viability, T/C [36]: 10.4%

Source: PubChem BioAssay AID2060897 (Molecular Pharmacology Branch, DTP, NCI, 2025)
